For assay [1], the system named is triacylglycerol hydrolase (TGH). The assay is described as follows: Proteome-wide serine hydrolase selectivity screening, TGH. In kind it is biochemical, human. As to conditions: value in parentheses; FAAH versus TGH.
Assay [2] deals with T1, triacylglycerol hydrolase (TGH) (UniProt Q8VCT4).
T1 sequence (Q8VCT4 1-565): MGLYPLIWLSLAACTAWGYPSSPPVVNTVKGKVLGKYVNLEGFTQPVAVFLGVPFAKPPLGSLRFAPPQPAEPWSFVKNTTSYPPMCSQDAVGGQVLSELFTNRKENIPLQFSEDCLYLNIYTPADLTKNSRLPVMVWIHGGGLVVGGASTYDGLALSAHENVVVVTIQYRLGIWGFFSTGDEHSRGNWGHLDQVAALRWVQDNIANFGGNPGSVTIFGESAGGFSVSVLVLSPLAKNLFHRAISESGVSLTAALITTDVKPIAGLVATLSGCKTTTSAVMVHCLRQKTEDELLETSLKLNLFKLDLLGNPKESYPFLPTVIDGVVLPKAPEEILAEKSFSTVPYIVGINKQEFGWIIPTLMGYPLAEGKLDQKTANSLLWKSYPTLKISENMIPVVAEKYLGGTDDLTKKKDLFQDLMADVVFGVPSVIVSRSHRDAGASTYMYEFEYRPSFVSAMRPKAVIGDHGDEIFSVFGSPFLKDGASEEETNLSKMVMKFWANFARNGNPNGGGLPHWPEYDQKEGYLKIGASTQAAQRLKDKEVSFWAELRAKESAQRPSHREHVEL
The description is as above. In kind it is biochemical, human. The note with it: selectivity screening.

The target of assay [3] is T2, truncated rat FAAH (rFAAH) (Rattus norvegicus, UniProt P97612).
T2 construct: The truncated rat FAAH (rFAAH) was expressed in E. coli and purified as described by Patricelli et al; made in house; host or cells: E. coli
T2 sequence (P97612 30-579 limits assumed): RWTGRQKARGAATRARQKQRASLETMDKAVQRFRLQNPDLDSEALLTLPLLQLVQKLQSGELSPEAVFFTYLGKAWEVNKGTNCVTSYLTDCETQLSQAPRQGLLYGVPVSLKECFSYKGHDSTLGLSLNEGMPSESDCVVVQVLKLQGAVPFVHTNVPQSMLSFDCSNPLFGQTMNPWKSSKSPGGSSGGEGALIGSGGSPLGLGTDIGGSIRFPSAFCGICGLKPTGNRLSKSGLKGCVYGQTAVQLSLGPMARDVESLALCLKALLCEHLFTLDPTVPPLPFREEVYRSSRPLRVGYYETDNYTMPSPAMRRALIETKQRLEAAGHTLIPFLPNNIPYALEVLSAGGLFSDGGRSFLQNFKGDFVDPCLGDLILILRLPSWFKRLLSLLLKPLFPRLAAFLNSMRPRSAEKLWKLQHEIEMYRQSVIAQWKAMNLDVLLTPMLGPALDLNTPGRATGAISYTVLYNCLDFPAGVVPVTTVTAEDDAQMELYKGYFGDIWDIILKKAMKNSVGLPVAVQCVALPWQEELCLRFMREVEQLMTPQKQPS
The assay is described as follows: Rat FAAH inhibition enzyme assay (14C-oleamide hydrolysis, Dixon plot). In kind it is biochemical. As to the method:
The purified recombinant rFAAH was used in the inhibition assays unless otherwise indicated.
The ^14C-labeled oleamide (substrate) and oleic acid (product) were extracted with EtOAc and analyzed by TLC. The Ki of the inhibitor was calculated using a Dixon plot (standard deviations are provided in the Supporting Information tables).

The subject of assay [4] is membrane-associated hydrolase (KIAA1363). Nature of the assay: Proteome-wide serine hydrolase selectivity screening, KIAA1363. In kind it is biochemical. As to conditions: value in parentheses; FAAH versus KIAA1363.
For assay [5], the target named is T3, membrane-associated hydrolase (KIAA1363) (UniProt Q8BLF1).
T3 sequence (Q8BLF1 1-408): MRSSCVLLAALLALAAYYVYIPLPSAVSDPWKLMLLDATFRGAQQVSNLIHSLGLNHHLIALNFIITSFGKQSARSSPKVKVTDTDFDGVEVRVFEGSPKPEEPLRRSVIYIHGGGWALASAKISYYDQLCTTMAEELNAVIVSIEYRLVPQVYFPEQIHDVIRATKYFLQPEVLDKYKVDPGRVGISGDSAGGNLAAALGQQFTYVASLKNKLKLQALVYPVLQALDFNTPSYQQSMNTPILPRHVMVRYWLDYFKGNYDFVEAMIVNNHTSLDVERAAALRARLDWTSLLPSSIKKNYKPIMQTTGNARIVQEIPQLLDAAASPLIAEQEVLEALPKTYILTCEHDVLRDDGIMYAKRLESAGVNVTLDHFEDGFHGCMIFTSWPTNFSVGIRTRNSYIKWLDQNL
The assay is described as above. In kind it is biochemical. As to conditions: selectivity screening.

The target in a further assay is T4, FAAH (UniProt O08914).
T4 sequence (O08914 1-579): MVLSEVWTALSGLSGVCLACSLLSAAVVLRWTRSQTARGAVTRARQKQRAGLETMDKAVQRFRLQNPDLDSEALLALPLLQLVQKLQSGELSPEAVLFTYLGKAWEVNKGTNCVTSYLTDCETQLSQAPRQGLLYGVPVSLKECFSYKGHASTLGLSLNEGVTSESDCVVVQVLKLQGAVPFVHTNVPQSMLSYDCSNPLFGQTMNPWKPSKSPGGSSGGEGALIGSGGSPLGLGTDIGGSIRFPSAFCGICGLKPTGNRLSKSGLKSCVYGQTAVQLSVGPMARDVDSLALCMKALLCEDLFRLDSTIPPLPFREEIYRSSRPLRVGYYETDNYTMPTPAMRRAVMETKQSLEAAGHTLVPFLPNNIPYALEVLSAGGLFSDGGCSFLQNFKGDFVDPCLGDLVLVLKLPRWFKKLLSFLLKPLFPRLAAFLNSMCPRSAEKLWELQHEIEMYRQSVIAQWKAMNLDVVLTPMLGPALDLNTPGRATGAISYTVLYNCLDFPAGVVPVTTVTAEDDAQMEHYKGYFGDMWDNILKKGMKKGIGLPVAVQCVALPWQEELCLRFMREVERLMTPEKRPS
Nature of the assay: Proteome-wide serine hydrolase selectivity screening, FAAH. In kind it is biochemical, human.

[6] abbreviates: Table 1, purified recombinant rFAAH, pH 9.0, read-out: Rat FAAH inhibition Ki.
The mark [7] stands for this setting: Table 4, value ± error, read-out: Ki, inhibition results with calculated errors.

Read-outs that look alike come from different tables or passages of the source.

What is called IC50 is the concentration needed to halve the response being measured. The low end stands for inhibition by little substance, the high end for a need for much substance. For orientation: Ki means the dissociation constant of the complex between target and ligand, obtained from inhibition or displacement. Turning to `N#Cc1coc(C(=O)CCCCCCc2ccccc2)n1` [Compound 4s, 2-(7-Phenylheptanoyl)oxazole-4-carbonitrile], the “TGH (selectivity)” value in assay [1] is listed as “(1.5)”. The half-inhibitory concentration (IC50) in assay [2] turned out to be 30 nM; in assay [5], 30000 nM; on FAAH, 20 nM. In addition, the inhibitory constant (Ki) was 0.5 nM in assay [3] (setting [6]); 0.6 nM in assay [3] (Table 2, read-out: FAAH Ki); 0.5 ± 0.009 nM in assay [3] (setting [7]). For the same molecule, in assay [4], the “KIAA1363 (selectivity)” value is given as “(1500)”.

In the case of `O=C(CCCCCCc1ccccc1)c1nc(C(F)(F)F)co1` [Compound 4t, 7-Phenyl-1-(4-(trifluoromethyl)oxazol-2-yl)heptan-1-one], the “TGH (selectivity)” value in assay [1] is listed as “(0.15)”. For the same molecule, the half-maximal inhibitory concentration (IC50) in assay [2] was 60 nM; in assay [5], 10000 nM; on FAAH, 400 nM. The Ki in assay [3] (setting [6]) is 3.7 nM; in assay [3] (Table 2, read-out: FAAH Ki), 3.7 nM; in assay [3] (setting [7]), 3.7 ± 0.02 nM. Also, in assay [4], the “KIAA1363 (selectivity)” value is listed as “(25)”.

As to `O=C(CCCCCCc1ccccc1)c1ncc(C(F)(F)F)o1` [Compound 5a, reference compound], in assay [1], the “TGH (selectivity)” value was “(3)”. The half-maximal inhibitory concentration (IC50) in assay [2] is 200 nM; in assay [5], greater than 100000 nM; against FAAH it was 70 nM. In addition, the Ki in assay [3] (Table 2, read-out: FAAH Ki) came out at 0.3 nM. Further, the “KIAA1363 (selectivity)” value in assay [4] was “(>1400)”.

These data come from patent US20120302607A1, “C4-SUBSTITUTED ALPHA-KETO OXAZOLES” (The Scripps Research Institute, priority 2008, published 2012).
